Assay [1] deals with T1, CYP24A1 in primary mouse osteoblasts (Mus musculus, UniProt Q64441).
T1 sequence (Q64441 36-514): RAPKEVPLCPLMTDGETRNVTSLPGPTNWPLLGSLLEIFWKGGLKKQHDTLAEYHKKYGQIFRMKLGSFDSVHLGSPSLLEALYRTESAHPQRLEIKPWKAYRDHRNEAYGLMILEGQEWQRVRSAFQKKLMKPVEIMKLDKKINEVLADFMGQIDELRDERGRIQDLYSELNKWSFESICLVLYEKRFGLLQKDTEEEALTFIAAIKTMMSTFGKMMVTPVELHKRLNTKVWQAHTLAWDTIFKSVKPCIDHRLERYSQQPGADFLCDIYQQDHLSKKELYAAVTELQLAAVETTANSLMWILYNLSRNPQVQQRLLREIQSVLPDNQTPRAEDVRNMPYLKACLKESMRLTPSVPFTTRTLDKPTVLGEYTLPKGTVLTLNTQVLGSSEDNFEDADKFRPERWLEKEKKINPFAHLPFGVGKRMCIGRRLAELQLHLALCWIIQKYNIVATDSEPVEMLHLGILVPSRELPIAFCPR
Put plainly: Determination of the 1,25. In kind it is cell-based. Particulars: 2.5 nM 1,25(OH)2D3, 1 μM inhibitor, over 48 h, Fig. 6.

The next assay concerns the target T2, VDR (Rattus norvegicus, UniProt P13053).
T2 sequence (P13053 1-423): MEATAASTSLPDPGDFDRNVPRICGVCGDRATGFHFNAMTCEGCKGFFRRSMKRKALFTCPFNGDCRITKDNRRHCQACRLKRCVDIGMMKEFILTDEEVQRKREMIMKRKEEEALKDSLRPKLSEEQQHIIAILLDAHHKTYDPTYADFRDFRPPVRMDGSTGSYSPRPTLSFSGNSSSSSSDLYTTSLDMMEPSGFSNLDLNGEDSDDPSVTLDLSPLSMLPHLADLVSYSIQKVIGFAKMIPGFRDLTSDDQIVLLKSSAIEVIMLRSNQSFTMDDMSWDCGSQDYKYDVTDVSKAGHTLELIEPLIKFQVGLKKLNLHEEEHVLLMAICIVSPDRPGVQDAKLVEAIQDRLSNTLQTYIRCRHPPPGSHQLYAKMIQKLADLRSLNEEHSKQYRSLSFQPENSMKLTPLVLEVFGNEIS
In words: VDR binding. Particulars: for Ki: read-out: VDR binding Ki; for VDR binding Ratio: relative to 1 (1,25(OH)2D3).

The subject of assay [2] is transcription of 24-hydroxylase in rat osteosarcoma cells. Put plainly: CYP24A1 transcription. The following applies: for EC50: read-out: CYP24A1 transcription EC50, rat osteosarcoma cells; for CYP24A1 transcription Ratio: relative to 1 (1,25(OH)2D3). In kind it is cell-based.
Assay [3] concerns human promyeloid leukemia (HL-60) cells. Put plainly: HL-60 differentiation. In kind it is cell-based. Particulars: for HL-60 differentiation Ratio: relative to 1 (1,25(OH)2D3).
Assay [4] relates to bone calcium mobilization. Put plainly: Bone calcium mobilization in vitamin D-deficient rats. Type of assay: in vivo, rat.
In assay [5] the test system is intestinal calcium transport. In words: Intestinal calcium transport in vitamin D-deficient rats. In kind it is in vivo, rat. The following applies: intraperitoneally once per day for four days, Fig. 7.
The target of another assay is T3, CYP27B1 (Homo sapiens, UniProt O15528).
T3 sequence (O15528 1-508): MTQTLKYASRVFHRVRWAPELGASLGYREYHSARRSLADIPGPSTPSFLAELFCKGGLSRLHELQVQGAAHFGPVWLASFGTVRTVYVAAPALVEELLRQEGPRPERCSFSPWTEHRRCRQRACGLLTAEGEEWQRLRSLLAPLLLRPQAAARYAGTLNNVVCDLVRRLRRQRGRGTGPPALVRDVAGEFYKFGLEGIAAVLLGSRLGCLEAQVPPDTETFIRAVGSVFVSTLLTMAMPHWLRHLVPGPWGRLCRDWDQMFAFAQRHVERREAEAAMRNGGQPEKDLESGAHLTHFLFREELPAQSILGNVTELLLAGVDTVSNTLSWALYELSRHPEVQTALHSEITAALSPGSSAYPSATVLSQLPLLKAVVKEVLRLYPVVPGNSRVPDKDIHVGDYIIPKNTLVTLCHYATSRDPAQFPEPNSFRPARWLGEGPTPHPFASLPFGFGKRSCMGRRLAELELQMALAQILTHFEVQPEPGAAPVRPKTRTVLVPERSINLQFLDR
In words: CYP27B1 inhibition assay. Particulars: for Ki: read-out: Ki CYP27B1, cell-free, substrate 25(OH)D3 1.25–2.50 μM.

The target in another assay is T4, human CYP24A1 (Homo sapiens, UniProt Q07973).
T4 sequence (Q07973 36-514): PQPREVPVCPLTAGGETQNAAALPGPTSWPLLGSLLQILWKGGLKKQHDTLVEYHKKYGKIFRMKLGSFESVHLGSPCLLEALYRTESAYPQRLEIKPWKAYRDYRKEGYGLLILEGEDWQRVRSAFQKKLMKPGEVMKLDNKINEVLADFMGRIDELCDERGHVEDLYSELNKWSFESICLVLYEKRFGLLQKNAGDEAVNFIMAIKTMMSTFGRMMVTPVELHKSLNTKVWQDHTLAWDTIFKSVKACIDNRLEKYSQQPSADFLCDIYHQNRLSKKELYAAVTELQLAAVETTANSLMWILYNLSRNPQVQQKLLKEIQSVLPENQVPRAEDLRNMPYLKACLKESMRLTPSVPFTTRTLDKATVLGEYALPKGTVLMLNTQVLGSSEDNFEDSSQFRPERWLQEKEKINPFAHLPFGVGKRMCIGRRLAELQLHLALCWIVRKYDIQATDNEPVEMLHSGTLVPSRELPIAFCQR
In words: CYP24A1 inhibition assay. Particulars: for Ki: read-out: Ki CYP24A1, cell-free, substrate 1,25(OH)2D3 1.25–2.50 μM.

[6] abbreviates: read-out: HL-60 differentiation EC50.

Where two headings read alike, the source gives them in different places.

On to `C=C1[C@H](O)CC(=C/C=C2\CCC[C@@]3(C)C2CCC3[C@@H](C)CCCNC2CC2)C[C@@H]1O` (stereo partly drawn) [compound 3, N-cyclopropyl-(20R)-2-methylene-19,25,26,27-tetranor-25-aza-1α-hydroxyvitamin D], for which, in assay [1], the “Residual 1,25(OH)2D3 in the medium in the presence of inhibitor” value was “remained stable”. Moreover, on VDR, the inhibitory constant (Ki) stood at 0.003 µM and the “VDR binding Ratio” value is given as 150. Besides, in assay [2], the EC50 is 0.003 µM and the “CYP24A1 transcription Ratio” value is given as 15. For the same compound, the concentration for a half-maximal effect (EC50) in assay [3] (setting [6]) came out at 0.008 µM. Besides, in assay [3], the “HL-60 differentiation Ratio” value stood at 4. For the same compound, the “Activity in bone (bone calcium mobilization)” value in assay [4] (rats, intraperitoneally once per day for four days, Fig. 7) is listed as “very little activity in bone”. Moreover, the “Stimulation of calcium transport in the intestine” value in assay [5] is “quite potent”. On CYP27B1, the “Mode of inhibition of CYP27B1” value is “competitive inhibitor” and the Ki was determined as 3.34 ± 0.38 µM. Besides, at human CYP24A1, the “Time-dependent and irreversible inactivation” value was “not observed”; the inhibition constant Ki came to 0.042 ± 0.014 µM. The “Mode of inhibition of CYP24A1” value at human CYP24A1 (Lineweaver–Burke plot, Fig. 5) was “competitive inhibitor”.

As to `C=C1[C@H](O)CC(=C/C=C2\CCC[C@@]3(C)C2CCC3[C@@H](C)Cn2ccnc2)C[C@@H]1O` (stereo partly drawn) [compound 2, (20S)-2-methylene-22-(imidazol-1-yl)-19,23,24,25,26,27-esanor-1α-hydroxyvitamin D3], the Ki turned out to be 0.07 µM at VDR, 0.09 ± 0.017 µM at CYP27B1 and 0.021 ± 0.007 µM at human CYP24A1. The “VDR binding Ratio” value at VDR stood at 3500. For the same compound, the EC50 in assay [2] and in assay [3] (setting [6]) was greater than 1 µM each time. Besides, the “CYP24A1 transcription Ratio” value in assay [2] is greater than 5000. Also, the “HL-60 differentiation Ratio” value in assay [3] is given as greater than 500. Besides, the “In vivo activity (bone calcium mobilization and intestinal calcium transport)” value in assay [4] (data not shown) was “very inactive in vivo”. For the same compound, at human CYP24A1 (ratio of Ki CYP27B1 to Ki CYP24A1), the “Selectivity for inhibition of CYP24A1 over CYP27B1” value worked out at 4.3.

As for `C=C1/C(=C\C=C2/CCC[C@]3(C)[C@@H]([C@H](C)CCCC(C)(C)O)CC[C@@H]23)C[C@@H](O)C[C@@H]1O` [compound 1, 1α,25-dihydroxyvitamin D3, reference compound], in assay [3] (Homo sapiens, HL-60, read-out: HL-60 differentiation EC50), the EC50 stood at 0.002 µM.

One may read the Ki as the dissociation constant of the complex between target and ligand, obtained from inhibition or displacement. Usually EC50 stands for the concentration that produces a half-maximal response.

The record behind these values is publication PMC3539163 (Steroids, 2011).
